{"source": "patent US20230190731A1", "about": "“FORMULATION COMPRISING HIF PROLYL HYDROXYLASE INHIBITORS” (ZYDUS LIFESCIENCES LIMITED, priority 2020, published 2023)", "key": {"[1]": {"test": "Solubility of compounds of formula (Ia) in various media", "type": "physicochemical"}, "[2]": {"system": "hypoxia inducible factor (HIF) prolyl hydroxylase", "test": "Inhibition of hypoxia inducible factor (HIF) prolyl hydroxylase (statement only)", "type": "biochemical"}}}
{"smiles": "O=C(O)CNC(=O)c1c(O)c2ccccc2n(OCC2CC2)c1=O", "note": "[Compound (Ia)]", "values": [{"measurement": "solubility", "setting": "[1]; in 0.1 N HCL", "result": "insoluble"}, {"measurement": "solubility", "setting": "[1]; in N,N-dimethyl formamide", "result": "freely soluble"}, {"measurement": "solubility", "setting": "[1]; in alkaline aqueous condition", "result": "soluble"}, {"measurement": "solubility", "setting": "[1]; in water", "result": "partially soluble"}, {"measurement": "inhibitor of HIF prolyl hydroxylase", "setting": "[2]", "result": "potent inhibitor"}]}
